The target in one data set is T1, heparanase (Homo sapiens, UniProt Q9Y251).
T1 sequence (Q9Y251 158-543 limits assumed): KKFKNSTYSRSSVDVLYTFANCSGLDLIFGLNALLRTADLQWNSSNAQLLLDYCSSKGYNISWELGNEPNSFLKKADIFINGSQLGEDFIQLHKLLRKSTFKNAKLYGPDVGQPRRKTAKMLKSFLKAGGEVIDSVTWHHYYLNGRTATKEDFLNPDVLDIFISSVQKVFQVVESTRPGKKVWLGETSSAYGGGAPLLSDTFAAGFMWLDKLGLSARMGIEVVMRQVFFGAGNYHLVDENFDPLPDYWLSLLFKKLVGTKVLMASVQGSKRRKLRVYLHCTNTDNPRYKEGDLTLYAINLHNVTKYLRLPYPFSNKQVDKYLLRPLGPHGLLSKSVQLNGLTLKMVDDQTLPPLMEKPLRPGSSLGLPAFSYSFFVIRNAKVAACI
T1 sequence (Q9Y251 36-109 limits assumed): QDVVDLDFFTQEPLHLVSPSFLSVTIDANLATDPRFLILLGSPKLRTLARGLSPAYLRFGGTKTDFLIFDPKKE
In words: Heparanase inhibition, Microcon ultrafiltration assay. Type of data set: biochemical. The following applies: 3H labelled HS, pH 5.0, 22° C., 2.5 h. As for the experimental part: The heparanase assays were performed using a Microcon ultrafiltration assay. The assays rely on the principle of physically separating heparan sulfate (HS) that has been digested by heparanase from native HS to determine heparanase activity. The assay uses ultrafiltration devices (Microcon YM-10) to separate the smaller heparanase-cleaved HS fragments from native HS.
A reaction was set up with a volume of 90 μL, • 40 mM acetate buffer (pH 5.0) • 0.1 mg/mL BSA • 90 ng heparanase • 2.5 μM ^3H labelled HS • various concentrations of inhibitors.
The reactions were set up with all components except the ^3H labelled HS and allowed to equilibrate for 10 min at 22° C. The assays were then initiated by adding the HS and immediately 20 μL was taken, mixed with 80 μL of 10 mM phosphate (pH 7.0) and the 100 μL transferred to a Microcon YM-10 concentrator which was then centrifuged at approximately 14000 g for 5 min. The solution that passed through the membrane (filtrate) was retained. This sample was considered the time=0 sample. The assays (now 70 μL in volume) were allowed to react at 22° C. for 2.5 h and then the filtration step was repeated for three aliquots of 20 μL from each assay.
The time=0 filtrate and the three 2.5 h filtrate samples were counted for ^3H. The difference between the time=0 and the averaged 2.5 h samples gave the amount of heparanase activity. All inhibition assays were run with a heparanase standard assay which was identical to the assay composition above except no inhibitor was present and the amount of heparanase inhibition in the other assays determined by comparison with this standard.

A further data set deals with FGF-1 (Homo sapiens, UniProt P05230). In words: SPR based solution affinity assay, growth factor binding (FGF-1). The following applies: heparin-coated sensorchip, HBS-EP buffer, 25° C.; read-out: Kd aFGF. On the procedure: (§1) Binding affinities of ligands for the growth factors FGF-1, FGF-2 and VEGF were measured using a surface plasmon resonance (SPR) based solution affinity assay. The principle of the assay is that heparin immobilised on a sensorchip surface distinguishes between free and bound growth factor in an equilibrated solution of the growth factor and a ligand. Upon injection of the solution, the free growth factor binds to the immobilised heparin, is detected as an increase in the SPR response and its concentration thus determined. A decrease in the free growth factor concentration as a function of the ligand concentration allows for the calculation of the dissociation constant, Kd. It is important to note that ligand binding to the growth factors can only be detected when the interaction involves the HS binding site, thus eliminating the chance of evaluating non-specific binding to other sites on the protein. A 1:1 stoichiometry has been assumed for all protein:ligand interactions.
FGF-1, sequence (P05230 whole entry, species assumed): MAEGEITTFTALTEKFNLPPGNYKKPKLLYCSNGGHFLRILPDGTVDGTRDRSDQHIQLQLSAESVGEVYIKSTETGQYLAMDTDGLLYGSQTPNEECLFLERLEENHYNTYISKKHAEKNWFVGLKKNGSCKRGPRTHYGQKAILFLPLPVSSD
(§2) For the testing of growth factor binding activity, heparin-coated sensorchips were used. Their preparation, via immobilisation of biotinylated BSA-heparin on a streptavidin-coated sensorchip, has been described.[5] Heparin has also been immobilised via aldehyde coupling using either adipic acid dihydrazide or 1,4-diaminobutane. […] Ligands binding to FGF-1 and VEGF were measured in HBS-EP buffer (10 mM HEPES, pH 7.4, 150 mM NaCl, 3.0 mM EDTA and 0.005% (v/v) polysorbate 20), while binding to FGF-2 was measured in HBS-EP buffer containing 0.3 M NaCl.[5] […] For each assay mixture, 50-200 μL of solution was injected at 5-40 μL/min and the relative binding response measured. […]
(§3) Sensorgram data were analysed using the BIAevaluation software (BIAcore). […]
(§4) [formula] and the binding equation[5] can be expressed as
(§5) The Kd values given are the values fit, using the binding equation, to a plot of [P] versus [L]total. Where Kd values were measured in duplicate, the values represent the average of the duplicate measurements. […]

The next data set has as its target FGF-2 (Homo sapiens, UniProt P09038). In words: SPR based solution affinity assay, growth factor binding (FGF-2). To be noted: heparin-coated sensorchip, HBS-EP buffer containing 0.3 M NaCl, 25° C.; read-out: Kd bFGF. On the procedure: as §1, §2, §3, §4, §5
A further data set concerns the target T2, VEGF (Homo sapiens, UniProt P15692).
T2 sequence (P15692 27-191 isoform P15692-4): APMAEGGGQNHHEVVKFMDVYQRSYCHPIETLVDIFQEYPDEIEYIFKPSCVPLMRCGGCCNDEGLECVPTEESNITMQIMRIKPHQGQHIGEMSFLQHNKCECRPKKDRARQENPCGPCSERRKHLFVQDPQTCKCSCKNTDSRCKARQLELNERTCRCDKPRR
In words: SPR based solution affinity assay, growth factor binding (VEGF). To be noted: heparin-coated sensorchip, HBS-EP buffer, 25° C. On the procedure:
as §1, §2, §3, §4, §5

The nature of data set [1]: Pharmacokinetic studies of 35S-labelled compounds after iv administration. To be noted: rat; for Urinary Recovery: urine collected 0-48 h. On the procedure:
The polyol precursors for PG500, 501, 503, 504, 506 and PI-88 (2 mg of each) were desiccated under vacuum over P2O5 for 3 days. Into each vial was syringed 50 μL of a stock solution of 1.77 mg (2.0 mCi) of ^35SO3.pyridine complex and 2 mg SO3.Me3N in 300 μL of anhydrous DMF (Aldrich, redried over freshly ignited 3 A molecular sieves). A further 600 μL of anhydrous DMF was added to the SO3 vial and was distributed to each sample vial. The samples were heated to 60° for 66 hr. SO3.Me3N (14 mg in 300 μL anhydrous DMF) was added to each vessel and the resulting solutions were heated to 60° overnight. The vials were cooled to room temperature and stored at −80° C. awaiting purification.
Each sample was quenched by addition of Na2CO3 (sat. aqu. adjusted to pH 8-9), evaporated to dryness and subjected to SEC (Biogel P2, 2.6×90 cm, flow rate 30 mL/hr, 5 min/fraction). Fractions containing desired material were detected using a G-M counter and DMB test followed by CE.
Male Sprague Dawley rats (250-350 g) were used. The animals were allowed free access to food and water before and during the experiments, during which they were maintained unrestrained in metabolism cages. Rats were anaesthetized with isoflurane (Forthane®). A catheter was inserted in the external jugular vein via an incision in the neck, and was passed under the skin to a second incision in the skin of the back (midline vicinity of the scapulae). This was then exteriorized with the protection of a light metal spring. The incision was closed and the spring fixed to the skin with Michel sutures so that the rats had full range of movement. The animals were carefully monitored during recovery (1-4 h).
All doses were administered as a bolus intravenous injection of 2.5 mg/kg in a dose volume of 2 mL/kg. The total amount of radioactivity administered to each rat was 0.5-10 μCi. The dose level used in this study is 10-fold lower than the no-effect dose previously established for acute toxicity of PI-88. Blood samples (˜250 μL) were collected predose and at 5, 15, 30, 45 min, and 1, 1.5, 2, 4, 8, 12, 24, 36 and 48 h after dosing. The blood samples were immediately centrifuged and the plasma collected. At completion of the experiments, the animals were killed by a lethal overdose of IV pentobarbitone anaesthetic (Nembutal®). Urine was collected from each animal at intervals of 0-12 h, 12-24 h and 24-48 h after dosing. Cage washings (˜15 mL of deionised water) were also collected. At the end of the experiment, bladder contents were aspirated from each animal and added to the 24-48 h voidings. Feces were collected over the same time intervals as the urine.
Aliquots of plasma (100 μL), urine and cage washings (500 μL) were transferred directly to 6 mL polypropylene scintillation vials for determination of radioactivity. Feces collected during each time period (from one animal dosed with each compound) were weighed and homogenised in 4 volumes of deionised water using a mechanical homogeniser. Approximately 1 g (accurately weighed) of this slurry was transferred to a 20 mL glass scintillation vial, 2 mL of tissue solubiliser added and the vials capped and incubated at 60° C. for at least 24 h. Radioactivity was measured following mixing of samples with Packard Ultima Gold liquid scintillation counting cocktail (2.0 mL for plasma and dose, 5.0 mL for urine and cage washings, 10 mL for feces). Counting was conducted on a Packard Tr-Carb liquid scintillation counter. Any result less than three times the background was considered less than the lower limit of quantitation not used in calculations. Plasma, urine and cage washings were counted in triplicate within 5 days of collection and were not corrected for radiochemical decay. Feces were processed as a batch at the completion of the study and the counts from these samples were corrected for radiochemical decay.

Data set [2] has as its system herpes simplex virus (HSV-1) KOS321 strain. In words: Antiviral assay, HSV-1 infectivity (plaque forming units). The class given is cell-based. The following applies: African green monkey kidney cells; virus pre-incubated with compound 10 min. The text has this: (§6) In panel A, the results are expressed as a percentage of the number of viral plaque forming units (PFU) formed in cells infected with the compound-treated virions relative to mock-treated controls. In panel B, the results are expressed as a percentage of the average area of 20 viral plaques formed in the continuous presence of compound relative to mock-treated control cells. Monolayer cultures of African green monkey kidney cells[35] and herpes simplex virus (HSV-1) KOS321 strain[36] were used throughout. The antiviral assays on the compounds were performed as described by Nyberg et al.[13] Briefly, the effects of the compounds on the infection of cells by exogenously added virus were tested by mixing serial fivefold dilutions of compound (at 0.032-20 μM) with approximately 200 plaque forming units of the virus. Following incubation of the virus and compound for 10 min at room temperature, the mixture was added to the cells and left on the cell monolayer for 2 h at 37° C. Subsequently, the inoculum was aspirated and replaced with an overlay medium of 1% methylcellulose solution in Eagle's minimum essential medium (EMEM). The viral plaques that developed after incubation of cells for 3 days at 37° C. were stained with 1% crystal violet solution and counted. The effects of the compounds on cell-to-cell spread of HSV-1 were tested by adding serial fivefold dilutions of compound (at 0.032-20 μM) in the serum-free overlay medium to cells after their infection with HSV-1. After incubation of the compound with the cells for 3 days at 37° C., the images of 20 plaques were captured and subjected to area determination using IM500 software (Leica).

Data set [3] shares this test system. In words: Antiviral assay, HSV-1 cell-to-cell spread (plaque area). Type of data set: cell-based. The following applies: African green monkey kidney cells; compound in overlay medium after infection, 3 days.
Description: as §6

Where [4] appears, read: iv bolus 2.5 mg/kg, plasma radioactivity.

Marks after values point to notes of the source that are not given here.

FGF-2, sequence (P09038 143-288, species assumed): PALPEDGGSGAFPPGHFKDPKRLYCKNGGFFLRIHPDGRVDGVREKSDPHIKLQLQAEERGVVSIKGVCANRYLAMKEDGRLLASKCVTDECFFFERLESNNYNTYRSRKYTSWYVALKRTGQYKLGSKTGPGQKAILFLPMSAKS

As for `[N-]=[N+]=NC1OC(COS(=O)(=O)O)C(OC2OC(COS(=O)(=O)O)C(OC3OC(COS(=O)(=O)O)C(OC4OC(COS(=O)(=O)O)C(OC5OC(COS(=O)(=O)O)C(OC6OC(COS(=O)(=O)O)C(OS(=O)(=O)O)C(OS(=O)(=O)O)C6OS(=O)(=O)O)C(OS(=O)(=O)O)C5OS(=O)(=O)O)C(OS(=O)(=O)O)C4OS(=O)(=O)O)C(OS(=O)(=O)O)C3OS(=O)(=O)O)C(OS(=O)(=O)O)C2OS(=O)(=O)O)C(OS(=O)(=O)O)C1OS(=O)(=O)O` (stereo not drawn) [PG505], the half-maximal inhibitory concentration (IC50) on heparanase stood at 1040 ± 147 nM. In addition, the Kd worked out at 1.96 ± 0.3 nM on FGF-1, 137 ± 12 nM on FGF-2 and 4.8 ± 0.4 nM at VEGF.

Consider PEG2000 Polysulfate [PG506], for which, in data set [1] (iv bolus 2.5 mg/kg), the “Cl* (apparent)” value was 404 ± 59.5^ mL/h/kg, the “Vd* (apparent)” value is reported as 44.5 ± 4.5^ mL, the “k* (apparent)” value is 1.17 ± 0.024^ h^−1 and the “Urinary Recovery” value was 79.1 ± 3.6^ % dose. In data set [1] (setting [4]), the C0 is on record as 17.1 ± 1.8^ μg-eq/mL. Also, the “AUC0-12 h, calculated over 0-8 h post dose interval only” value in data set [1] (iv bolus 2.5 mg/kg, 0-8 h post dose interval only) is on record as 6.2 ± 1.0^a μg-eq/h · mL. The IC50 in data set [2] was found to be 10 µM. The compound also gave a half-maximal inhibitory concentration (IC50) in data set [3] of 7 µM.

Turning to PEG5000 Polysulfate [PG504], in data set [1] (iv bolus 2.5 mg/kg), the “Cl* (apparent)” value was found to be 172 ± 11.8 mL/h/kg, the “Vd* (apparent)” value was determined as 24.9 ± 2.9 mL, the “k* (apparent)” value stood at 0.247 ± 0.003 h⁻¹ and the “Urinary Recovery” value is 66.5 ± 9.4 % dose. In data set [1] (setting [4]), the AUC0-12 h came to 14.7 ± 1.2 μg-eq/h · mL and the C0 is 30.5 ± 2.3 μg-eq/mL. The same compound came in with an IC50 in data set [3] of 11 µM.

On to PI-88 [reference compound], for which, in data set [1] (in vivo, iv, 2.5 mg/kg), the AUC0-12 h is recorded as 9.6 ± 1.9 μg-eq/h · mL, the C0 turned out to be 17.7 ± 2.23 μg-eq/mL, the “Cl* (apparent)” value stood at 250 ± 27.6 mL/h/kg and the “Vd* (apparent)” value was 43.1 ± 1.9 mL. Further, in data set [1] (in vivo, iv, 2.5 mg/kg), the “t1/2* (apparent)” value worked out at 49.8 ± 5.4 min.

The values are drawn from patent US8173606B2, “Sulfated oligosaccharide derivatives” (Progen Pharmaceuticals Limited, priority 2004, dated 2012).
